17 molecules from patent US11976083B2, “Inhibitors of peptidylarginine deiminases” (Gilead Sciences, Inc., priority 2020, dated 2024) can be followed below.

Molecules are shown by their SMILES.

In general, IC50 refers to the concentration that gives 50% inhibition.

The target of the experiment is T1, human PAD4 (Homo sapiens, UniProt Q9UM07).
T1 construct: human PAD4 (NM_012387), A2-P663, was PCR amplified; His-SUMO (N, cleaved yes); made in house; host or cells: E. coli BL21(DE3)
T1 sequence (Q9UM07 2-663): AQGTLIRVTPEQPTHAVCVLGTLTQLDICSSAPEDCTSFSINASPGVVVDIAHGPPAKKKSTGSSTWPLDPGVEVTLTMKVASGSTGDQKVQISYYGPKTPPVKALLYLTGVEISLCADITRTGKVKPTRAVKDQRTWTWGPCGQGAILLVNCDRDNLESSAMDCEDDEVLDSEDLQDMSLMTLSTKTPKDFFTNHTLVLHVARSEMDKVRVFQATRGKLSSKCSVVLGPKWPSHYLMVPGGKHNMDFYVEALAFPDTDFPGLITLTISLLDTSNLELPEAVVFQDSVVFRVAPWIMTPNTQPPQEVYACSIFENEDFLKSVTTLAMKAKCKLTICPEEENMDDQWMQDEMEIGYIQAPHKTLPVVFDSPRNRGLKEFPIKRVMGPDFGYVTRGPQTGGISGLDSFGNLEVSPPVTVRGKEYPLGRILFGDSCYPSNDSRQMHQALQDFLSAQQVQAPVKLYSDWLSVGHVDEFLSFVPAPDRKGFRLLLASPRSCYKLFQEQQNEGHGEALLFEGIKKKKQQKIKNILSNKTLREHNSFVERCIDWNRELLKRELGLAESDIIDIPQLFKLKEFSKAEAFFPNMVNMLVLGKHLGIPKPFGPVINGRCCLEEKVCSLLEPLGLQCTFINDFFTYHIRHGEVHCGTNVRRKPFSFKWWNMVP
Nature of the experiment: In vitro PAD4 BAEE biochemical assay. The following applies: BAEE substrate 3 mM, 5 nM PAD4, 2 mM calcium chloride; geometric mean of multiple experiments. Put shortly:
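Recombinant human PAD4 (5 nM final) with 2 mM CaCl2 was preincubated with compound 30 min at 25 °C in MOPS buffer pH 7.6, then reacted with 3 mM BAEE for 2 h at 25 °C. After EDTA stop, released ammonia was detected by o-phthalaldehyde/DTT fluorescence (ex 405/em 535 nm); IC50 from four-parameter fit, geometric mean.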
As to `COc1cc(C(=O)N2C[C@H](N)[C@@H]3CC[C@H]2C3)cc2nc(-c3cc4ccc5nc4n3CCCCCCCCN(C(C)=O)[C@@H]5C)n(C)c12` [Example 908], the IC50 was 151 nM.

On to `COc1cc(C(=O)N2C[C@H](N)[C@@H]3CC[C@H]2C3)cc2nc(-c3cc4ccc5nc4n3CCCCCOC(C)(C)C(=O)N[C@@H]5C)n(C)c12` [Example 909, (11~{R})-17-[5-[(1~{S},4~{R), 5~{R})-4-amino-2-azabicyclo [3.2.1]octane-2-carbonyl]-7-methoxy-1-methyl-benzimidazol-2-yl]-8,8,11-trimethyl-7-oxa-1,10,19-triazatricyclo[10.5.2.0^{15,18}] nonadeca-12(19), 13,15(18),16-tetraen-9-one], for which the IC50 is 52 nM. For `COc1cc(C(=O)N2C[C@H](N)[C@@H]3CC[C@H]2C3)cc2nc(-c3cc4ccc5nc4n3CCCCCOC3(CC3)C(=O)N[C@@H]5C)n(C)c12` [Example 910, (11~{R})-17-[5-[(1~{S},4~ {R},5~{R})-4-amino-2-azabicyclo [3.2.1]octane-2-carbonyl]-7-methoxy-1-methyl-benzimidazol-2-yl]-11-methyl-spiro[7-oxa-1,10,19-triazatricyclo[10.5.2.0^{15,18}]nonadeca-12(19), 13,15(18),16-tetraene-8,1′-cyclopropane]-9-one] the value was 49 nM; for `C[C@H]1NC(=O)c2c(C3CC3)cc(Cl)nc2CCCCCn2c(-c3nc4cc(C(=O)N5C[C@H](N)[C@@H]6CC[C@H]5C6)cc(F)c4n3C3CC3)cc3ccc1nc32` [Example 911, (2~{R})-17-[5-[(1~{S},4~{R}, 5~{R})-4-amino-2-azabicyclo[3.2.1]octane-2-carbonyl]-1-cyclopropyl-7-fluoro-benzimidazol-2-yl]-8-chloro-6-cyclopropyl-2-methyl-3,9,16,22-tetrazatetracyclo[14.5.2.0^ {5,10}.0^{19,23}]tricosa-1(22),5(10),6,8,17,19(23),20-heptaen-4-one], 61 nM. Under `C[C@H]1NC(=O)c2ccnn2CCCCCn2c(-c3nc4cc(C(=O)N5C[C@H](N)[C@@H]6CC[C@H]5C6)cc(F)c4n3C3CC3)cc3ccc1nc32` [Example 912, (2~{R})-16-[5-[(1~{S},4~{R},5~ {R})-4-amino-2-azabicyclo [3.2.1]octane-2-carbonyl]-1-cyclopropyl-7-fluoro-benzimidazol-2-yl]-2-methyl-3,8,9,15,21-pentazatetracyclo [13.5.2.0^{5,9}.0^{18,22}] docosa-1(21),5,7,16,18(22),19-hexaen-4-one] stands 17 nM. As for `C[C@H]1NC(=O)[C@@H]2C[C@H]2CCCCCn2c(-c3nc4cc(C(=O)N5C[C@H](N)[C@@H]6CC[C@H]5C6)ccc4n3C3CC3)cc3ccc1nc32` [Example 913, (2~{R},5~{R},7~{R})-14-[5-[(1~{S},4~{R},5~{R})-4-amino-2-azabicyclo[3.2.1]octane-2-carbonyl]-1-cyclopropyl-benzimidazol-2-yl]-2-methyl-3,13,19-triazatetracyclo [11.5.2.0^{5,7}.0^{16,20}] icosa-1(19),14,16(20),17-tetraen-4-one], the IC50 is 22 nM. Under `C[C@H]1NC(=O)[C@@H]2C[C@H]2CCCC(F)(F)Cn2c(-c3nc4cc(C(=O)N5C[C@H](N)[C@@H]6CC[C@H]5C6)ccc4n3C3CC3)cc3ccc1nc32` [Example 914, (2~{R},5~{R},7~{R})-14-[5-[(1~{S},4~{R},5~{R})-4-amino-2-azabicyclo[3.2.1]octane-2-carbonyl]-1-cyclopropyl-benzimidazol-2-yl]-11,11-difluoro-2-methyl-3,13,19-triazatetracyclo[11.5.2.0^ {5,7}.0^{16,20}]icosa-1(19), 14,16(20),17-tetraen-4-one] stands 16 nM; under `COc1cc(C(=O)N2C[C@H](N)[C@@H]3CC[C@H]2C3)cc2nc(-c3cc4ccc5nc4n3CCCCC[C@@]3(F)C[C@]3(C)C(=O)N[C@@H]5C)n(C)c12` [Example 915, (2~{R},5~{R},7~{R})-14-[5-[(1~{S},4~{R},5~{R})-4-amino-2-azabicyclo[3.2.1]octane-2-carbonyl]-7-methoxy-1-methyl-benzimidazol-2-yl]-7-fluoro-2,5-dimethyl-3,13,19-triazatetracyclo[11.5.2.0^ {5,7}.0^{16,20}]icosa-1(19),14,16(20),17-tetraen-4-one], 47 nM; under `COc1cc(C(=O)N2C[C@H](N)[C@@H]3CC[C@H]2C3)cc2nc(-c3cc4ccc5nc4n3CCCCC[C@]3(F)C[C@@]3(C)C(=O)N[C@@H]5C)n(C)c12` [Example 916, (2~{R},5~{S},7~{S})-14-[5-[(1~{S},4~{R},5~{R})-4-amino-2-azabicyclo[3.2.1]octane-2-carbonyl]-7-methoxy-1-methyl-benzimidazol-2-yl]-7-fluoro-2,5-dimethyl-3,13,19-triazatetracyclo[11.5.2.0^ {5,7}.0^{16,20}]icosa-1(19),14,16(20),17-tetraen-4-one], 26 nM. For `COc1cc(C(=O)N2C[C@H](N)[C@@H]3CC[C@H]2C3)cc2nc(-c3cc4ccc5nc4n3CCCCC[C@@H]3C[C@@]3(C)C(=O)N[C@@H]5C)n(C)c12` [Example 917, (2~{R},5~{R},7~{R})-14-[5-[(1~{S),4~{R},5~{R})-4-amino-2-azabicyclo[3.2.1]octane-2-carbonyl]-7-methoxy-1-methyl-benzimidazol-2-yl]-2,5-dimethyl-3,13,19-triazatetracyclo[11.5.2.0^ {5,7}.0^{16,20}]icosa-1(19), 14,16(20),17-tetraen-4-one] the value was 27 nM; for `C[C@H]1NC(=O)[C@@H]2C[C@@]2(F)CC[C@@H]2C[C@@H]2Cn2c(-c3nc4cc(C(=O)N5C[C@H](N)[C@@H]6CC[C@H]5C6)cc(F)c4n3C3CC3)cc3ccc1nc32` [Example 918, (3~{S},5~{R},8~{S},10~{S}, 13~{R})-19-[5-[(1~{S), 4~{R},5~{R})-4-amino-2-azabicyclo[3.2.1]octane-2-carbonyl]-1-cyclopropyl-7-fluoro-benzimidazol-2-yl]-8-fluoro-13-methyl-1,12,21-triazapentacyclo[12.5.2.0^ {3,5}.0^{8,10}.0^{17,20}] henicosa-14(21),15, 17(20),18-tetraen-11-one], 31 nM; for `C[C@H]1NC(=O)[C@@H]2C[C@@]2(F)/C=C/CCCn2c(-c3nc4cc(C(=O)N5C[C@H](N)[C@@H]6CC[C@H]5C6)cc(F)c4n3C3CC3)cc3ccc1nc32` [Example 919, (2~{R},5~{S},7~{R},8~{E})-14-[5-[(1~{S},4~{R},5~{R})-4-amino-2-azabicyclo[3.2.1]octane-2-carbonyl]-1-cyclopropyl-7-fluoro-benzimidazol-2-yl]-7-fluoro-2-methyl-3,13,19-triazatetracyclo[11.5.2.0^ {5,7}.0^{16,20}]icosa-1(19),8,14,16(20),17-pentaen-4-one], 20 nM. Under `C[C@H]1NC(=O)[C@@H]2C[C@@]2(F)CCCCCn2c(-c3nc4cc(C(=O)N5C[C@H](N)[C@@H]6CC[C@H]5C6)cc(F)c4n3CC(F)F)cc3ccc1nc32` [Example 920, (2~{R},5~{S},7~{S})-14-[5-[(1~{S),4~{R},5~{R})-4-amino-2-azabicyclo[3.2.1]octane-2-carbonyl]-1-(2,2-difluoroethyl)-7-fluoro-benzimidazol-2-yl]-7-fluoro-2-methyl-3,13,19-triazatetracyclo [11.5.2.0^{5,7}.0^{16,20}] icosa-1(19),14,16(20),17-tetraen-4-one] stands 21 nM.

In the case of `C[C@H]1NC(=O)c2ccc(Cl)nc2CCCCCn2c(-c3nc4cc(C(=O)N5C[C@H](N)[C@@H]6CC[C@H]5C6)cc(F)c4n3CC3CC3)cc3ccc1nc32` [Example 921, (2~{R})-17-[5-[(1~{S},4~{R},5~ {R})-4-amino-2-azabicyclo [3.2.1]octane-2-carbonyl]-1-(cyclopropylmethyl)-7-fluoro-benzimidazol-2-yl]-8-chloro-2-methyl-3,9,16,22-tetrazatetracyclo[14.5.2.0^ {5,10}.0^{19,23}]tricosa-1(22),5(10),6,8,17,19(23),20-heptaen-4-one], the IC50 is 30 nM. For `C[C@H]1NC(=O)[C@@H]2C[C@H]2CCCC(F)(F)Cn2c(-c3nc4cc(C(=O)N5C[C@H](N)[C@@H]6CC[C@H]5C6)cc(F)c4n3CC(F)F)cc3ccc1nc32` [Example 922, (2~{R},5~{R},7~{R})-14-[5-[(1~{S},4~{R},5~{R})-4-amino-2-azabicyclo[3.2.1]octane-2-carbonyl]-1-(2,2-difluoroethyl)-7-fluoro-benzimidazol-2-yl]-11,11-difluoro-2-methyl-3,13,19-triazatetracyclo [11.5.2.0^{5,7}.0^{16,20}] icosa-1(19),14,16(20),17-tetraen-4-one] the value was 35 nM; for `C[C@H]1NC(=O)[C@@H]2C[C@@]2(F)CCCCCn2c(-c3nc4cc(C(=O)N5C[C@H](N)[C@@H]6CC[C@H]5C6)ccc4n3C3CC3)cc3ccc1nc32` [Example 923, (2~{R},5~{S},7~{S})-14-[5-[(1~{S},4~{R},5~{R})-4-amino-2-azabicyclo[3.2.1]octane-2-carbonyl]-1-cyclopropyl-benzimidazol-2-yl]-7-fluoro-2-methyl-3,13,19-triazatetracyclo [11.5.2.0^{5,7}.0^{16,20}] icosa-1(19),14,16(20), 17-tetraen-4-one], 24 nM; for `COc1cc(C(=O)N2C[C@H](N)[C@@H]3CC[C@H]2C3)cc2nc(-c3cc4ccc5nc4n3CC(F)(F)CCC[C@@H]3C[C@@]3(C)C(=O)N[C@@H]5C)n(C3CC3)c12` [Example 924, (2~{R},5~{R},7~{R})-14-[5-[(1~{S),4~{R},5~{R})-4-amino-2-azabicyclo[3.2.1]octane-2-carbonyl]-1-cyclopropyl-7-methoxy-benzimidazol-2-yl]-11,11-difluoro-2,5-dimethyl-3,13,19-triazatetracyclo [11.5.2.0^{5,7}.0^{16,20}] icosa-1(19),14,16(20), 17-tetraen-4-one], 46 nM.
